Columns and labels:
[1] = system: GTL16 tumors; experiment: GTL16 tumor xenograft model, tumor growth inhibition; assay type: in vivo, female athymic nude mice; details: for decrease of mean tumor volume compared to vehicle-treated group: last day of treatment
Experimental: GTL16 Tumor Xenograft Model
Female athymic nude mice (nu/nu from Harlan) were 6-8 weeks old with a body weight range of 18-22 g at the beginning of the study. The animals had free access to food and water throughout the study. The mice were housed on irradiated Alpha-dri® Bed-O-Cobs® Laboratory Animal Bedding in static micro isolator caging on a 12-hour light cycle at 70-74° F. and 40-60% humidity. All procedures involving animals were conducted in compliance with the NIH Guide for the Care and Use of Laboratory Animals and all protocols were approved by an Internal Animal Care and Use Committee (IACUC).
Xenografts were initiated from GTL-16 tumor cells cultured and maintained by an internal Cell Biology Department. Each test mouse received a subcutaneous injection of 4×10^6 cells suspended in 100 μL of serum free RPMI media. Tumors were randomized into treatment groups on Day 5 when the average tumor size reached approximately 150 mm^3. Each dose groups contained n=5 mice. Tumor volume was calculated using the formula: Tumor Volume=(w^2×l)/2, where w=width and l=length in mm of the tumor. Tumor weight may be estimated with the assumption that 1 mg is equivalent to 1 mm^3 of tumor volume.
Tumor Growth Inhibition (TGI) Analysis
TGI was calculated from the difference between the mean tumor volumes of vehicle-treated and drug-treated mice, expressed as a percentage.
The MTV is defined as the mean tumor volume (MTV) for the number of animals, n, remaining in the study on that day.

[2] = molecular target: MET kinase (c-MET), kinase domain of human Met (Homo sapiens, UniProt P08581); experiment: MET luminescence-based enzyme assay (Kinase-Glo)
MET kinase (c-MET), kinase domain of human Met, sequence (P08581 1078-1345 limits assumed): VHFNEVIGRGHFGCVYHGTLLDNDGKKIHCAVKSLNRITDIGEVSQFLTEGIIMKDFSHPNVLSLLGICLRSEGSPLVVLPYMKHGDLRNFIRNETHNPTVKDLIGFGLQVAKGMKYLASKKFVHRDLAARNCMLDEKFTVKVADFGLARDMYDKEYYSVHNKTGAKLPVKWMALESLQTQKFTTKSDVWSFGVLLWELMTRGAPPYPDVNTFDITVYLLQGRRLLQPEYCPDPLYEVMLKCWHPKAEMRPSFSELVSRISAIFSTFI

[3] = system: GTL16; experiment: GTL16 cell assay (EC50); assay type: cell-based; details: Homo sapiens, GTL 16

| IC50 [2] | EC50 ([3]; Table 1) | EC50 ([3]; Table 2) | Structure (SMILES) | decrease of mean tumor volume compared to vehicle-treated group ([1]; 3 mg/kg PO BID for 14 consecutive days, p<0.2743) | decrease of mean tumor volume compared to vehicle-treated group ([1]; 50 mg/kg IP BID for 14 consecutive days, p<0.0036) | inhibition of growth of GTL16 tumors grown subcutaneously ([1]; IP dose 50 mg/kg BID, 14 consecutive days) | decrease of mean tumor volume compared to vehicle-treated group ([1]; 1 mg/kg PO Q12H for 14.5 consecutive days, p=0.0079) | decrease of mean tumor volume compared to vehicle-treated group ([1]; 3 mg/kg PO Q12H for 14.5 consecutive days, p<0.0001) | decrease of mean tumor volume compared to vehicle-treated group ([1]; 10 mg/kg PO Q12H for 14.5 consecutive days, p<0.0001) | decrease of mean tumor volume compared to vehicle-treated group ([1]; 30 mg/kg PO Q12H for 14.5 consecutive days, p<0.0001) |
| --- | --- | --- | --- | --- | --- | --- | --- | --- | --- | --- |
| < 100 nM | < 100 nM | – | CNC(=O)c1ccc(-c2ccc3nnc(Cc4ccc5ncccc5c4)n3n2)cc1F [compound 30] | 27% | 89% | statistically significant inhibition | – | – | – | – |
| < 100 nM | – | < 100 nM | Cc1ccc2nnc(Cc3ccc4ncc(-c5cnn(C)c5)cc4c3)n2n1 [compound 124, 3-(1-Methyl-1H-pyrazol-4-yl)-6-(6-methyl-[1,2,4]triazolo[4,3-b]pyridazin-3-ylmethyl)-quinoline] | – | – | – | 32% | 55% | 72% | 79% |
